US6280760A, “Peptide-coated implants and methods for producing same” (Merck Patent Gesellschaft mit beschraenkter Haftung, priority 1997, dated 2001)

How the values were obtained:
[1] = system: MC3T3 H1 osteoblasts; assay: Adhesion of MC3T3 H1 osteoblasts to PMMA moulded articles coated with acrylate RGD peptides; assay type: cell-based, mouse
Protocol: For the covalent coupling of these peptides to polymerized PMMA (polymethyl methacrylate) surfaces, appropriate shaped articles of differing porosity (diameter: 10 mm; height: 2 mm) were prepared from three different PMMA components.
Bone cement based on PMMA (Merck KGaA, Germany, Licence No. 5181.00.00) corresponding to the product description (40 g of powder+20 ml of liquid).
10 g of PMMA/PHEMA (polyhydroxyethyl methacrylate) granules, particle size 0.5-0.6 mm (Biomet) were mixed with 1.3 ml of an HEMA solution (68.6% HEMA, 29.4% TEGMA [triethylene glycol dimethacrylate], 2% tBPB, [tert-butyl peroxybenzoate]) and adhered by means of this to a porous support material.
10 g of PMMA granules (Plex Y7H, Rohm, Germany), particle fraction 0.7-2 mm were mixed with 1.5 ml of a methyl methacrylate (MMA) solution (68.6% MMA, 29.4% TEGMA, 2% tBPB) and adhered by this means to a porous support material.
For the covalent coupling of the acrylate peptides to the prepolymerized PMMA moulded articles, stock solutions of the acrylate peptides 1, 2, 3 and 4 were prepared in a final concentration of 100 μM in each case in DMSO/0.2% camphorquinone (w/v). Then, by dilution with isopropanol/0.2% camphorquinone (w/v), concentration series having final peptide concentrations of 0.1 nM, 1 nM, 10 nM, 100 nM, 1 μM and 10 μM in each case were prepared. The moulded articles were incubated in daylight and at room temperature for 2 hours and then stored at 4° C. in the dry state. Before use, the samples were washed with PBS, pH 7.4, to remove unbound peptides and stored at 4° C. in PBS, pH 7.4, overnight.
By addition of 250 μl/moulded article each of a 5% strength BSA solution in PBS, pH 7.4, and subsequent incubation for 2 hours at room temperature and washing once with PBS, pH 7.4, non-specific cell-binding sites were blocked.
Subsequently, the adhesion of osteoblasts of the MC3T3 H1 line, obtained from the calvaria of neonatal mice (Heermeier et al., 1995, Cells and Materials 5: 309-321) to the above-described peptide-coated surfaces was investigated.
The MC3T3 H1 osteoblasts were inoculated at an inoculation density of 48,000 cells/cm^2, as described above, in Costar 48-well plates, with PMMA moulded articles coated with RGD peptide and then incubated for 1 hour at 37° C., 95% atmospheric humidity and 5% CO2. Cells non-adhered during the experiment were then washed off twice with PBS, pH 7.4.
(§1) The quantification of the adhered cells was carried out indirectly via the activity determination of the cellular enzyme N-acetylhexosaminidase using an appropriate standard curve according to the method of Landegren (1984, J. Immunol. Methods, 67: 379-388).

[2] = system: MC3T3 H1 osteoblasts; assay: Adhesion of MC3T3 H1 osteoblasts to BSA-pretreated polystyrene surfaces coated with thiol-RGD peptides via sulpho-SMPB; assay type: cell-based, mouse; conditions: for stimulation of the adhesion of cultured mouse MC3T3 H1 osteoblasts: BSA-pretreated polystyrene, peptide coupled via sulpho-SMPB, FIG. 2; for maximum adsorption rate (of the inoculated cells): MC3T3 H1 mouse osteoblasts, 48,000 cells/cm^2, 1 hour
Protocol: (§2) The covalent coupling of the peptides according to the invention with sulphosuccinimidyl 4-(p-maleimidophenyl)butyrate (sulpho-SMPB) to culture surfaces of polystyrene precoated with bovine serum albumin (BSA) was accomplished following the established processes of Singer et al., 1987, J. Cell. Biol. 104: 573, or of Ruoslahti et al. (1982, Methods. Enzymol., 82: 803-831).
To do this, 48-well plates (Costar, "non-tissue culture treated", Art. No. 3547) were each coated with 250 μl of PBS (phosphate-buffered saline), pH=8.3, 2% BSA, per well and incubated overnight at room temperature in order to generate a BSA layer on the polystyrene. The plates were then washed with 250 μl of PBS, pH=8.3, per well and incubated at room temperature for 1 hour with 250 μl each of a solution containing 100 μg/ml of SMPB in PBS, pH 8.3. Washing of the wells was then carried out three times using 250 μl of PBS, pH 8.3, each time. For the preparation of the coating solutions, the appropriate thiol-RGD peptide was prepared in the following final concentrations in PBS, pH 8.3: 1 nM, 10 nM, 100 nM, 1 μM, 10 μM, 100 μM and 1 mM. After addition of 250 μl each of coating solution/well, the plates were incubated at room temperature overnight and then washed three times with PBS, pH 8.3. By addition of 250 μl each of a 5% strength BSA solution in PBS, pH 7.4, subsequent incubation for 2 hours at room temperature and washing with PBS, pH 7.4, non-specific cell-binding sites were blocked. Polystyrene surfaces, which from the coating were treated with a 5% strength BSA solution identically to the positive samples, functioned as negative coating controls. The adhesion of four cell cultures which were obtained from three different species was then investigated on the abovementioned surfaces coated with RGD peptide:
osteoblast cell line MC3T3 H1, obtained from the calvaria of neonatal mice (Heermeier et al., 1995, Cells and Materials, 5: 309-321), and
The cell species described were inoculated with an inoculation density of 48,000 cells/cm^2 into, as described above, Costar-48 well plates coated with RGD peptide, and then incubated for 1 hour at 37° C., 95% atmospheric humidity and 5% CO2. Cells unadhered during the experiment were then washed off twice with PBS, pH 7.4.
as §1

[3] = system: primary human osteoblasts; assay: Adhesion of primary human osteoblasts to BSA-pretreated polystyrene surfaces coated with thiol-RGD peptides via sulpho-SMPB; assay type: cell-based; conditions: 48,000 cells/cm^2, 1 hour
Protocol: as §2
(§3) To do this, 48-well plates (Costar, "non-tissue culture treated", Art. No. 3547) were each coated with 250 μl of PBS (phosphate-buffered saline), pH=8.3, 2% BSA, per well and incubated overnight at room temperature in order to generate a BSA layer on the polystyrene. The plates were then washed with 250 μl of PBS, pH=8.3, per well and incubated at room temperature for 1 hour with 250 μl each of a solution containing 100 μg/ml of SMPB in PBS, pH 8.3. Washing of the wells was then carried out three times using 250 μl of PBS, pH 8.3, each time. For the preparation of the coating solutions, the appropriate thiol-RGD peptide was prepared in the following final concentrations in PBS, pH 8.3: 1 nM, 10 nM, 100 nM, 1 μM, 10 μM, 100 μM and 1 mM. […]
as §1

[4] = system: osteoblast cultures; assay: Adhesion of the different osteoblast cell species to thiolpeptide-coated BSA-polystyrene surfaces (statements over all cultures); assay type: cell-based, mouse, human, rat; conditions: all osteoblast cultures employed
Protocol: as §2, §3, §1

[5] = system: primary human osteoprogenitor cells; assay: Adhesion of primary human osteoprogenitor cells to BSA-pretreated polystyrene surfaces coated with thiol-RGD peptides via sulpho-SMPB; assay type: cell-based; conditions: 48,000 cells/cm^2, 1 hour
Protocol: as §2, §3, §1

[6] = system: primary rat osteoblasts; assay: Adhesion of primary rat osteoblasts to BSA-pretreated polystyrene surfaces coated with thiol-RGD peptides via sulpho-SMPB; assay type: cell-based; conditions: 48,000 cells/cm^2, 1 hour
Protocol: as §2, §3, §1

[7] = system: human melanoma cell line M21L; assay: Adhesion of alphav beta3-/alphav beta5-negative control cells M21L to thiolpeptide-coated BSA-polystyrene surfaces; assay type: cell-based; conditions: BSA-pretreated polystyrene coated with thiolpeptide
Protocol: as §2, §3, §1

EC50 ([1]; different PMMA moulded articles, read-out: half-maximal cell bindings, RGD peptide concentration in the coating solution)	Substance	cell adsorption rates increased in comparison with uncoated surfaces ([1]; bone cement shaped articles, FIG. 8)	maximal adsorption rates ([1]; different PMMA moulded articles, 48,000 cells/cm^2, 1 hour)	cell adsorption rates increased in comparison with uncoated surfaces ([1]; porous PMMA/PHEMA granule shaped articles, FIG. 9)	cell adsorption rates increased in comparison with uncoated surfaces ([1]; porous Plex Y7H granule shaped articles, FIG. 10)	stimulation of the adhesion of cultured mouse MC3T3 H1 osteoblasts [2]	maximum adsorption rate (of the inoculated cells) [2]	maximum adsorption rate (of the inoculated cells) [3]	cell adsorption rates raised compared with 5% BSA-coated surfaces [4]	maximum adsorption rate (of the inoculated cells) [5]	maximum adsorption rate (of the inoculated cells) [6]	cell adhesion of alphav beta3-/alphav beta5-negative control cells (M21L) [7]
0.001 to 10 µM	cyclo(RGDf[acrylic-ahx-tEG-tEGK]) [acrylate peptide 4]	5-15 fold	80-100%	2-5 fold	2-3 fold							
	cyclo-RGDfK NH--CO--CH2 --CH2 --CO--NH--CH2 --CH2 --S-- (sulpho-SMPB) [thiolpeptide 2-(sulpho-SMPB) derivative]					strong and dose-dependent stimulation	90-100%	about 80%	20-40 fold	about 80%	about 70%	do not show any significant cell adhesion
	cyclo-RGDfK NH--CO--CH2 --CH2 --S-- (sulpho-SMPB) [thiolpeptide 1-(sulpho-SMPB) derivative]					strong and dose-dependent stimulation	90-100%	about 80%	20-40 fold	about 80%	about 70%	do not show any significant cell adhesion
	cyclo-RGDvE CO--NH--CH2 --CH2 --CH2 --CH2 --CH2 --CO--NH--CH2 --CH2 --S-- (sulpho SMPB) [thiolpeptide 3-(sulfo-SMPB), reference compound]					markedly weaker effect						
	cyclo-RβADfK-NH--CO--CH2 --CH2 --S-- (sulpho-SMPB) [thiolpeptide control, reference compound]					no significant effect						
